Reference: patent publication US5521193A, “Benzimidazole compounds” (G. D. Searle & Co., priority 1995, dated 1996)

How the values were obtained:
[1] = tested on: 5-HT3; test: Bezold-Jarisch Reflex (inhibition of 5-HT-induced bradycardia in anesthetized mice); type: in vivo; details: i.p., 30 min before 5-HT 0.25 mg/kg i.v.; >50 percent reduction in bradycardic response vs vehicle considered significant; pentobarbital anesthetized mice
Method: (§1) 5-HT4 agonist activity was determined in the in vitro rat tunice muscularis mucosae (TMM) assay. (Baxter et el., Naunyn Schmied Arch. Pharmacol, 1991, 343,439). The 5-HT4 agonist or antagonist activity and/or 5-HT3 antagonist activity of the compounds of the invention herein, can be determined by the assays as described herein, without undue experimention.
The compound to be evaluated was administered i.p. (mg/kg) to a group of 3 mice. […] A greater than 50 percent (>50) reduction in the bradycardic response relative to vehicle-treated control mice was considered significant.
This method has been described by Saxena, P. R. and Lawang, A., Arch. Int. Pharmacodyn., 277:235-252, 1985.
The assay results for the compounds of the present invention and their Minimum Effective Dose (MED) and the reference compounds and their MEDs are recorded in Table I.

[2] = target: T1, 5-HT3 receptor (Rattus norvegicus, UniProt P35563); test: Serotonin (5-HT3) radioligand binding, [3H]-GR65630, rat brain cortex membranes; details: Ki, [3H]-GR65630 0.2 nM; 60 min, 22° C.
T1 construct: Brain cortices were obtained from male rats and a membrane fraction prepared by standard techniques; from tissue; host or cells: rat brain cortex membranes
T1 sequence (P35563 24-483): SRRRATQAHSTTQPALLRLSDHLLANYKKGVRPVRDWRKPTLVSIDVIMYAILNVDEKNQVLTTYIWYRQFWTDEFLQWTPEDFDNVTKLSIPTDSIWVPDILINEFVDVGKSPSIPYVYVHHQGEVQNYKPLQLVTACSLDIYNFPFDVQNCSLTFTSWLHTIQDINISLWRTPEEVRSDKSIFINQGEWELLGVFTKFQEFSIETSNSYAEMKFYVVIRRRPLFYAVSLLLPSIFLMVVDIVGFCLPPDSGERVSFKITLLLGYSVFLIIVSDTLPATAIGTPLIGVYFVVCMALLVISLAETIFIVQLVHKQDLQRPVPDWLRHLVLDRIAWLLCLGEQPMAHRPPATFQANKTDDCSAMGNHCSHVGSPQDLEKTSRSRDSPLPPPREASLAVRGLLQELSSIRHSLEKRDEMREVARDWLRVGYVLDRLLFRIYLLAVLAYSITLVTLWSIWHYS
Method: GR65630 binds to the 5-HT3 receptor. Brain cortices were obtained from male rats and a membrane fraction prepared by standard techniques. 0.04 mg of membrane prep was incubated with 0.2 nM […] for 60 minutes at 22° C. […] Membranes were filtered and washed times and the filters were counted to determine [3H]-GR65630 specifically bound. Kilpatrick G. J., Jones B. J. and Tyers M. B. Identification and distribution of 5-HT3 receptors in rat brain using radioligand binding assay. Nature, 330 : 746-748, 1987.

[3] = target: T2, 5-HT4 receptor (Rattus norvegicus, UniProt Q62758); test: biochemical; details: carbachol (3 μM)-contracted rat esophagus TMM; 37° C.; tissues from 5 rats; read-out: 5-HT4 Agonism (Rat TMM) In Vitro Assay: EC50 Values
T2 construct: One 2 cm segment of intrathoracic esophagus proximal to the diaphragm was removed from male rats; from tissue; host or cells: rat intrathoracic oesophagus, inner tunica muscularis mucosae
T2 sequence (Q62758 whole entry): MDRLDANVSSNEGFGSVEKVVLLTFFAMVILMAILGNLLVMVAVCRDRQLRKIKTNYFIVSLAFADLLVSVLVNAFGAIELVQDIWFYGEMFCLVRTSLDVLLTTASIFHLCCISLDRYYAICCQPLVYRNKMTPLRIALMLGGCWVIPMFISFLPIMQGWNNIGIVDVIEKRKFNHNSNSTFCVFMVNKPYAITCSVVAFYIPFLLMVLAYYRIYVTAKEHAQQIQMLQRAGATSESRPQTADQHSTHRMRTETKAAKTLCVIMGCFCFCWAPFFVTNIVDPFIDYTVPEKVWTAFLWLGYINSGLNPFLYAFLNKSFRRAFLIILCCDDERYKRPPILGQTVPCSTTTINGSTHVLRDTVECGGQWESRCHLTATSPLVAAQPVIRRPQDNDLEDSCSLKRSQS
Method: as §1
Agonist activity was determined utilizing relaxation of carbachol-contracted rat tunica muscularis mucosae. One 2 cm segment of intrathoracic esophagus proximal to the diaphragm was removed from male rats, weighing approximately 300 gm, and the outer muscle layers removed. The inner tunica muscularis mucosa was mounted under 0.2-0.3 g of tension in a tissue bath containing oxygenated Tyrode's solution at 37° C. […] Following a 30 min equilibrium period, tissues were isometrically contracted with carbachol (3 μM) to obtain a tonic contraction. A stable plateau was obtained within 20 min when test compound was added cumulatively to relax the muscle strip. EC50 values were obtained for each agonist in tissues from 5 rats.

| SMILES | Minimum Effective Dose (MED) [1] [mg/kg] | Ki [2] [nM] | EC50 [3] [nM] |
| --- | --- | --- | --- |
| CCN(CC)CCNC(=O)c1cc(Cl)c(N)cc1OC [metoclopramide] | 5 | – | – |
| CC[C@@H](CO)NC(=O)[C@@H]1C=C2c3cccc4c3c(cn4C)C[C@H]2N(C)C1 [methylsergide] | > 10 | – | – |
| O=c1[nH]c2ccccc2n1CCCN1CCC(n2c(=O)[nH]c3cc(Cl)ccc32)CC1 [domperidone] | > 10 | – | – |
| CC(C)n1c(=O)n(C(=O)NCCC23CCCN2CCC3)c2ccccc21 [Example 13, N-[2-(hexahydro-7aH-pyrrolizin-7a-yl)ethyl]-2,3-dihydro-3-(1-methylethyl) 2-oxo-1H-benzimidazole-1-carboxamide] | 10 | 120 | 179 |
